From patent US7863315B2, “2-indolinone derivatives as selective histone deacetylase inhibitors” (Shenzhen Chipscreen Biosciences, Ltd., priority 2008, dated 2011)

Key:
Format in all cases: cell-based
[1] = test system: HDAC3 (gdf11 reporter gene); assay: HDAC subtype reporter gene assay, gdf11-promoter luciferase in HeLa cells; settings: Homo sapiens, M-HeLa, read-out: % of SAHA Response for HDAC3 at 10 μM (gdf11 reporter gene), 24 hours
Protocol: (§1) Measurement of inhibition of HDAC subtypes activity in cells by reporter gene assay: HDAC subtype selectivity inhibition assay of tested compounds was carried out by several reporter gene assays experiments. Briefly, HeLa cells were seeded in 96-well plates the day before transfection to give a confluence of 50-80%. Cells were transfected with one of reporter gene plasmids containing a promoter sequences or response elements upstream of a luciferase gene construct using FuGene6 transfection reagent according to the manufacturer's instructions (Roche). The promoters or response elements including p21-promoter, gdf11-promoter, MEF-binding element (MEF2), Nur77-promoter were fused upstream to the luciferase gene reporter construct. For normalizing the transfection efficiency, a GFP expression plasmid was cotransfected. Cells were allowed to express protein for 24 hours followed by addition of individual compounds or the vehicle (DMSO). 24 hours later, the cells were harvested and the luciferase assays were performed using the luciferase assay kit according to the manufacturer's instructions (Promega). To normalize the data from the luciferase assays, GFP activity from transfected cells was measured in a microtiter-plate reading fluorimeter capable of excitation at a wavelength at 485 nm and detection of emitted light at 527 nm.

[2] = test system: HDAC class I (p21 reporter gene); assay: HDAC subtype reporter gene assay, p21-promoter luciferase in HeLa cells; settings: Homo sapiens, M-HeLa, read-out: % of SAHA Response for HDAC class I at 10 μM (p21 reporter gene), 24 hours
Protocol: as §1

[3] = test system: HDAC4/5 (MEF2 reporter gene); assay: HDAC subtype reporter gene assay, MEF-binding element (MEF2) luciferase in HeLa cells; settings: Homo sapiens, M-HeLa, read-out: % of SAHA Response for HDAC4/5 at 10 μM (MEF2 reporter gene), 24 hours
Protocol: as §1

[4] = test system: HDAC7 (Nur77 reporter gene); assay: HDAC subtype reporter gene assay, Nur77-promoter luciferase in HeLa cells; settings: Homo sapiens, M-HeLa, read-out: % of SAHA Response for HDAC7 at 10 μM (Nur77 reporter gene), 24 hours
Protocol: as §1

Measured: Emax at 10 µM

O=C(CCCCCCC(=O)Nc1ccccc1)NO [SAHA, suberoylanilide hydroxamic acid, reference compound]
100%: all assays above
